Test results from US20240307426A1, “USE OF SGLT-2 INHIBITORS FOR THE PREVENTION AND/OR TREATMENT OF RENAL DISEASES IN NON-HUMAN MAMMALS” (BOEHRINGER INGELHEIM VETMEDICA GMBH, priority 2021, published 2024).

System: cats with chronic kidney disease (CKD)
Test: Exploratory clinical field trial in cats with CKD (Example 3)
Format: in vivo, cat
Set-up: key to IRIS Stage (based on serum creatinine level) / IRIS Stage (based on creatinine level) / IRIS Stage (based on the creatinine level): IRIS CKD stage assigned from serum creatinine (IRIS 2019)
Settings: for Phosphorus: ref 0.8-2.2; for Serum creatinine: ref 0.9-2.3; for Potassium: ref 3.3-5.8; for Hematocrit: ref 28.2-52.7; for UPC: ref <0.33
Description: The clinical trial was conducted at three animal clinics. Overall, 9 cats with chronic kidney disease (CKD) were included in the study and treated once daily orally with 1 mg/kg bodyweight velagliflozin for up to 150 days (depending on the time of enrollment).
Diagnosis of CKD was based on two measurements of serum creatinine concentration at least 2 weeks apart from each other (historical value and screening, and value at screening in fasted cats), as recommended by the International Renal Interest Society (IRIS 2019). In order to qualify for enrollment, serum creatinine levels needed to be ≥2.2 mg/dL, but <5.0 mg/dL.
Disease staging throughout the study was performed based on serum creatinine levels in accordance with the IRIS CKD staging (IRIS 2019).
All other cats were treated for >90 days had at least data for two time points under treatment available and were therefore evaluated. Progression of the disease, as well as IRIS staging in this study was based on the most reliable biomarker: serum creatinine.

[1] = case 200-006, Visit 2 (Day 90), 1 mg/kg po once daily
[2] = case 200-006, Visit 3 (Day 121), 1 mg/kg po once daily
[3] = case 200-006, screening visit (before treatment)
[4] = case 200-007, 1 mg/kg po once daily
[5] = case 200-007, 1 mg/kg po once daily, whole study
[6] = case 200-007, Visit 1 (Day 30), 1 mg/kg po once daily
[7] = case 200-007, Visit 2 (Day 90), 1 mg/kg po once daily
[8] = case 200-007, Visit 3 (Day 114), 1 mg/kg po once daily
[9] = case 200-007, screening visit (before treatment)
[10] = case 300-003 (IRIS stage 2), removed early on day 30
[11] = case 300-008, 1 mg/kg po once daily
[12] = case 300-008, 1 mg/kg po once daily, whole study
[13] = case 300-008, Visit 1 (Day 30), 1 mg/kg po once daily
[14] = case 300-008, Visit 2 (Day 90), 1 mg/kg po once daily
[15] = case 300-008, Visit 3 (Day 103), 1 mg/kg po once daily
[16] = case 300-008, screening visit (before treatment)
[17] = case 400-004, 1 mg/kg po once daily
[18] = case 400-004, 1 mg/kg po once daily, whole study
[19] = case 400-004, Visit 1 (Day 30), 1 mg/kg po once daily
[20] = case 400-004, Visit 2 (Day 90), 1 mg/kg po once daily
[21] = case 400-004, Visit 3 (Day 119), 1 mg/kg po once daily
[22] = case 400-004, screening visit (before treatment)

## N#Cc1ccc([C@@H]2O[C@H](CO)[C@@H](O)[C@H](O)[C@H]2O)cc1Cc1ccc(C2CC2)cc1 [velagliflozin, Velagliflozin]
[1]
  Systolic blood pressure: 155.3 mmHg
  Phosphorus: 1.3 mmol/L
  Serum creatinine: 2.7 mg/dL
  Potassium: 4.4 mmol/L
  Hematocrit: 37.3%
  UPC: 0.2
[2]
  BUN: 42 mg/dL
  IRIS Stage (based on the creatinine level): 2
  Owner assessment - quality of life: good
  Owner assessment of the appetite: normal
  Owner assessment of the drinking behavior: excessive
  Systolic blood pressure: 140.0 mmHg
  Phosphorus: 2.0 mmol/L
  Serum creatinine: 2.8 mg/dL
  Potassium: 4.3 mmol/L
  Hematocrit: 35.5%
[3]
  BUN: 34 mg/dL
  IRIS Stage (based on the creatinine level): 2
  Owner assessment - quality of life: good
  Owner assessment of the appetite: poor
  Owner assessment of the drinking behavior: excessive
  Systolic blood pressure: 141.3 mmHg
  Phosphorus: 1.3 mmol/L
  Serum creatinine: 2.6 mg/dL
  Potassium: 3.8 mmol/L
  Hematocrit: 37.9%
  UPC: 0.1
[4]
  adverse events: three occasions of vomitus, two occasions of inappetence and one occasion of mild anaemia, leukocytopenia
  expected glucosuric effect: confirmed
[5]
  Serum creatinine levels (course): increased mildly
  Serum potassium levels (course): remained stable within the reference range
  Total urine protein and UPC: mildly increased
  drinking behavior (course): improved to normal
  quality of life (course): changed from very good to good
  the cat's condition: stable
[6]
  BUN: 40 mg/dL
  IRIS Stage (based on the creatinine level): 3
  Owner assessment - quality of life: very good
  Owner assessment of the appetite: normal
  Owner assessment of the drinking behavior: normal
  Systolic blood pressure: 122.7 mmHg
  Phosphorus: 1.0 mmol/L
  Serum creatinine: 3.2 mg/dL
  Potassium: 4.0 mmol/L
  Hematocrit: 35.9%
[7]
  BUN: 42 mg/dL
  IRIS Stage (based on the creatinine level): 3
  Owner assessment - quality of life: good
  Owner assessment of the appetite: normal
  Owner assessment of the drinking behavior: normal
  Systolic blood pressure: 130.7 mmHg
  Phosphorus: 1.3 mmol/L
  Serum creatinine: 3.3 mg/dL
  Potassium: 4.4 mmol/L
  Hematocrit: 32.6%
  UPC: 0.2
[8]
  BUN: 43 mg/dL
  IRIS Stage (based on the creatinine level): 3
  Owner assessment - quality of life: good
  Owner assessment of the appetite: normal
  Owner assessment of the drinking behavior: normal
  Systolic blood pressure: 130.7 mmHg
  Phosphorus: 1.3 mmol/L
  Serum creatinine: 3.2 mg/dL
  Potassium: 3.9 mmol/L
  Hematocrit: 28.9%
[9]
  BUN: 41 mg/dL
  IRIS Stage (based on the creatinine level): 3
  Owner assessment - quality of life: very good
  Owner assessment of the appetite: normal
  Owner assessment of the drinking behavior: excessive
  Systolic blood pressure: 139.3 mmHg
  Phosphorus: 1.2 mmol/L
  Serum creatinine: 2.9 mg/dL
  Potassium: 4.4 mmol/L
  Hematocrit: 37.6%
  UPC: 0.1
[10]
  evaluated clinical signs: no worsening of the evaluated clinical signs
  laboratory parameters: stable laboratory parameters
  reported events: Tooth pain, anorexia and feline odontoclastic-resorptive lesions (FORL) were reported
[11]
  adverse events: No adverse event was reported
  expected glucosuric effect: confirmed
[12]
  Drinking behavior according to owner's assessment (course): improved from excessive to normal
  condition (clinical signs and biochemical parameters): stabilization of the condition
  course of serum creatinine concentration: remained stable
  serum potassium and phosphate levels: remained in the reference range
  total urine protein and UPC ratio: remained within the reference range
[13]
  BUN: 65 mg/dL
  IRIS Stage (based on creatinine level): 2
  Owner assessment - quality of life: good
  Owner assessment of the appetite: poor
  Owner assessment of the drinking behavior: normal
  Systolic blood pressure: 150.0 mmHg
  Phosphorus: 1.4 mmol/L
  Serum creatinine: 1.9 mg/dL
  Potassium: 4.9 mmol/L
  Hematocrit: 28.8%
[14]
  BUN: 64 mg/dL
  IRIS Stage (based on creatinine level): 2
  Owner assessment - quality of life: good
  Owner assessment of the appetite: normal
  Systolic blood pressure: 150.0 mmHg
  Phosphorus: 1.5 mmol/L
  Serum creatinine: 2.4 mg/dL
  Potassium: 4.4 mmol/L
  Hematocrit: 32.4%
  UPC: 0.2
[15]
  BUN: 54 mg/dL
  IRIS Stage (based on creatinine level): 2
  Owner assessment - quality of life: good
  Owner assessment of the appetite: normal
  Owner assessment of the drinking behavior: normal
  Systolic blood pressure: 148.7 mmHg
  Phosphorus: 1.6 mmol/L
  Serum creatinine: 2.6 mg/dL
  Potassium: 4.4 mmol/L
  Hematocrit: 28.2%
  UPC: 0.3
[16]
  BUN: 36 mg/dL
  IRIS Stage (based on creatinine level): 2
  Owner assessment - quality of life: good
  Owner assessment of the appetite: normal
  Owner assessment of the drinking behavior: excessive
  Systolic blood pressure: 148.0 mmHg
  Phosphorus: 1.3 mmol/L
  Serum creatinine: 2.4 mg/dL
  Potassium: 4.9 mmol/L
  Hematocrit: 26.7%
  UPC: 0.2
[17]
  adverse events: One non-serious adverse event was reported (owner reported diarrhea)
  expected glucosuric effect: confirmed
[18]
  Drinking behavior according to the owner (course): improved from excessive to normal
  UPC ratio (course): remained in the normal range
  condition (clinical signs and biochemical parameters): improvement of the condition
  course of BUN concentration: decrease
  course of serum creatinine concentration: decrease
  serum potassium and phosphate levels: remained within the reference range
  total urine protein: reduced
[19]
  BUN: 20.0 mg/dL
  IRIS Stage (based on serum creatinine level): 3
  Owner assessment - quality of life: good
  Owner assessment of the appetite: normal
  Owner assessment of the drinking behavior: normal
  Systolic blood pressure: 142.7 mmHg
  Phosphorus: 1.3 mmol/L
  Serum creatinine: 4.0 mg/dL
  Potassium: 3.9 mmol/L
  Hematocrit: 41.0%
[20]
  BUN: 19.3 mg/dL
  IRIS Stage (based on serum creatinine level): 3
  Owner assessment - quality of life: good
  Owner assessment of the appetite: poor
  Owner assessment of the drinking behavior: normal
  Systolic blood pressure: 157.3 mmHg
  Phosphorus: 1.3 mmol/L
  Serum creatinine: 3.2 mg/dL
  Potassium: 3.8 mmol/L
  Hematocrit: 45.0%
  UPC: 0.1
[21]
  BUN: 24.3 mg/dL
  IRIS Stage (based on serum creatinine level): 3
  Owner assessment - quality of life: good
  Owner assessment of the appetite: normal
  Owner assessment of the drinking behavior: normal
  Systolic blood pressure: 149.3 mmHg
  Phosphorus: 1.5 mmol/L
  Serum creatinine: 2.9 mg/dL
  Potassium: 4.0 mmol/L
  Hematocrit: 45.0%
[22]
  BUN: 20.2 mg/dL
  IRIS Stage (based on serum creatinine level): 3
  Owner assessment - quality of life: good
  Owner assessment of the appetite: normal
  Owner assessment of the drinking behavior: excessive
  Systolic blood pressure: 151.3 mmHg
  Phosphorus: 1.4 mmol/L
  Serum creatinine: 4.2 mg/dL
  Potassium: 4.3 mmol/L
  Hematocrit: 44.0%
  UPC: 0.1
Evaluated cats, 1 mg/kg po once daily
  Clinical signs related to CKD: either remained good/stable or improved in the majority of cats
Feline CKD patients, 1 mg/kg orally once daily
  risk factors for progression of the disease (e.g. UPC, blood pressure, potassium, phosphorus): remained stable and within the reference range
One of the 3 cats with decreased serum creatinine (stage 3->stage 2)
  IRIS staging: improved by one category
Oral 1 mg/kg bodyweight once daily, evaluated cats
  complications of CKD: no complications of CKD observed
The other 4 of seven evaluated cats
  laboratory parameters related to CKD (serum creatinine) and clinical signs: stable condition
